Laboratory results taken from patent US7563822B2, “Agents for the prevention or treatment of renal diseases” (Kissei Pharmaceutical Co., Ltd., priority 2002, dated 2009).

Tests used:
[1] = tested on: Normal human mesangial cells; test: Inhibitory effect on human FXa-induced human mesangial cell proliferation (DNA amount by fluorescence); format: cell-based; settings: for Fluorescence intensity: FXa 20 nM, 111 hours culture
Experimental: Normal human mesangial cells were seeded at 10000 cells/200 μL of Mesangial cell growth medium/well in 96-well plates, and cultured in CO2 incubator (37° C., O2:CO2=95:5). One day after seeding, cells were rinsed with Mesangial cell basal medium containing 0.5% bovine serum albumin (not containing growth factors), and then replaced the medium with Mesangial cell basal medium containing 0.5% bovine serum albumin (not containing growth factors) which was containing human activated coagulation factor X (hereinafter referred to as FXa; Calbiochem) and a test compound of certain concentrations, and cultured for 111 hours in CO2 incubator (37° C., O2:CO2=95:5). After cultivation, cells were rinsed with Hank's balanced salt solution at 250 μL/well, and frozen preservation of the cells at −30° C. was carried out until the measurement of the amount of DNAs for every plate. For measurement of the amount of DNAs, fluorescence intensity (measurement condition: excitation 480 nm; emission 520 nm) was estimated using Cell Proliferation Assay Kit (Molecular Probe). […] In addition, it is shown that * in the Table has a significant difference (p<0.05) compared with the group which was added FXa alone.

[2] = tested on: ICR mice; test: Acute toxicity test, tail vein administration; format: in vivo; settings: male ICR mice, 24 hours
Experimental: Male ICR mice aged 7 weeks (SLC) were divided into several groups consisting of 5 mice. […] The solution was administered through the tail vein at an infusion rate of 1 mL/minute. Observations were performed at constant interval, and the survival rate was judged for 24 hours.

[3] = tested on: db/db mice; test: Inhibitory effect on development of diabetic nephropathy in db/db mice (urine albumin/creatinine ratio); format: in vivo; settings: 100 mg/kg orally twice a day for 10 weeks
Experimental: Six weeks old male db/db mice (20 individuals) and non-diabetic type db/+m mice (10 individuals) were used. db/db Mice were divided into two groups (each 10 individuals), a test compound suspended in a 0.5% methylcellulose solution was orally administrated at 100 mg/kg to one group (test compound group) twice a day. On the other hand, a 0.5% methylcellulose solution alone was orally administrated to another group (control group) and db/+m mice twice a day. After continuing administration for 10 weeks, urine collection was performed for each mouse using a metabolism cage for 24 hours. Insoluble substances in collected urine samples were removed by centrifugal separation. The urine albumin/creatinine ratio which can be obtained by rectifying the urine albumin concentration by the urine creatinine concentration was evaluated as the index of the urine protein excretion. In addition, the urine albumin/creatinine ratio was calculated based on the formula below. Urine albumin/creatinine ratio=Urine albumin concentration/Urine creatinine concentration Urine albumin concentration was measured using a Murine Microalbuminurea ELISA Kit (Exocell Icc.), and urine creatinine concentration was measured using a commercial kit for creatinine (Wako). […] In addition, it is shown that * in the Table has a significant difference (p<0.05) compared with control group.

[4] = tested on: db/db mice; test: Inhibitory effect on hypercoagulable state in db/db mice (plasma TAT level); format: in vivo; settings: 100 mg/kg orally, one hour after administration
Experimental: Thirty two weeks old male db/db mice (11 individuals) and wild type +m/+m mice (6 individuals) were used. db/db Mice were divided into two groups, a 0.5% methylcellulose solution containing a test compound at 100 mg/kg was orally administrated to one group (test compound group, 6 individuals). On the other hand, a 0.5% methylcellulose solution alone was orally administrated to another group (control group, 5 individuals) and +m/+m mice. One hour after administration, mice were anesthetized with diethyl ether. […] Plasma thrombin-antithrombin III complex (TAT) level was measured using an EIA (enzyme immunoassay) kit (Dade behring). […] In addition, it is shown that * in the Table has a significant difference (p<0.05) compared with control group.

CS(=O)(=O)c1ccccc1-c1ccc(CCNS(=O)(=O)c2cc(C(=N)N)ccc2O)c(OCC(=O)O)c1.Cl [Compound 33, [4-[2-(5-Carbamimidoyl-2-hydroxybenzenesulfonylamino)-ethyl]-2′-methanesulfonoylbiphenyl-3-yloxy]acetic acidhydrochloride]
Inhibition of human FXa-induced mesangial cell proliferation (in words) ([1]; FXa-induced human mesangial cells): inhibited human FXa-induced mesangial cell proliferation concentration-dependently | Fluorescence intensity ([1]; test compound 1 μM, FXa alone 227.0, no FXa 186.8): 206.2 | Fluorescence intensity ([1]; test compound 10 μM, * p<0.05 vs FXa alone (227.0)): 178.3* | Number of death ([2]; Method B: 100 mg/10 mL/kg): 0/5

CCCCOC(=O)COc1cc(-c2ccccc2S(C)(=O)=O)ccc1CCNS(=O)(=O)c1cc(C(=N)NO)ccc1O.Cl [Compound 48, n-Butyl [4-[2-[2-Hydroxy-5-(N-hydroxycarbamimidoyl)-benzenesulfonylamino]ethyl]-2′-methanesulfonylbiphenyl-3-yloxy]acetate hydrochloride]
Inhibition of urine albumin excretion (in words) [3]: inhibited urine albumin excretion significantly | Urine albumin/creatinine ratio ([3]; 24 hours urine, * p<0.05 vs control group (0.386)): 0.202* | Effect on plasma TAT level / hypercoagulable state (in words) [4]: decreased plasma TAT level significantly | Plasma thrombin-antithrombin III complex level ([4]; * p<0.05 vs control group (69.25)): 8.31*

CS(=O)(=O)c1ccccc1-c1ccc(CCNS(=O)(=O)c2cc(C(=N)NO)ccc2O)c(OCC(=O)O)c1 [Compound 47, [4-[2-[2-Hydroxy-5-(N-hydroxycarbamimidoyl)benzenesulfonylamino]ethyl]-2′-methanesulfonylbiphenyl-3-yloxy]acetic acid]
Number of death ([2]; Method A: 50 mg/10 mL/kg): 0/5 | Number of death ([2]; Method B: 100 mg/10 mL/kg): 0/5
